One assay concerns the target T1, M1 receptor (Rattus norvegicus, UniProt P08482).
T1 construct: expressed in transfected cells
T1 sequence (P08482 1-460): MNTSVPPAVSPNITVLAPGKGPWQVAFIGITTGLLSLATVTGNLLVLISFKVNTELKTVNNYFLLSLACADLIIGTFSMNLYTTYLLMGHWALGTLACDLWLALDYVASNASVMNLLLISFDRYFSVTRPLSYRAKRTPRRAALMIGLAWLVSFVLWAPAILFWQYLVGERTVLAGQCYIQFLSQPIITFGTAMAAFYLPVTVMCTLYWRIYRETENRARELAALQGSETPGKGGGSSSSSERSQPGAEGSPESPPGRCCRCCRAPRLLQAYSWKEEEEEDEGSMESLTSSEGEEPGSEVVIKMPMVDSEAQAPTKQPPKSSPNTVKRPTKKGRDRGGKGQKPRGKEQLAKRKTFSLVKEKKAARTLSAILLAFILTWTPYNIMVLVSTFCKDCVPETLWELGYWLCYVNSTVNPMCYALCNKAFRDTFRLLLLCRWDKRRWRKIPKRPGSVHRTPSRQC
Put plainly: M1 PAM assay (FLIPR intracellular calcium), rat. It is filed as cell-based. On the technique in general: A change in cytosolic calcium serves as a functional read-out for many receptors and channels.

For the next assay, the target named is T2, human M1 (Homo sapiens, UniProt P11229).
T2 construct: expressed in transfected cells; host or cells: CHO cells
T2 sequence (P11229 1-460): T1 sequence (P08482 1-460) with V5A, S254T, S309P, K320R, G337A, V413I
The assay is described as follows: M1 PAM assay (FLIPR intracellular calcium, CHO human M1). It is filed as cell-based. The method, then: The assay study the effect of several concentrations of test compounds on basal or acetylcholine-stimulated Ca^2+ levels using FLIPR. CHO human M1 are plated the day before the experiments at 2×10^5 cells/ml in PDL BioCoat 96 well black/clear plate (Becton 35 4640). The cells are grown at 37° C. and 5% CO2 in the following medium: F12 Nut Mix (Gibco 21765), 10% FCS heat inactivated (GIBCO 16000-044), 1% Pen Strep (Gibco, 15140) and 200 μg/ml Geneticin (Gibco 11811). On the day of the experiment, the medium was removed and replaced by 100 μl of dye loading buffer containing Hanks Balanced Salt solution (HBSS, 14065-049, Gibco) with 20 mM HEPES (Gibco 15630-056), 2 mM Probenicid (Sigma P8761), […] (Molecular Probes F-14202), 10% Pluronic acid Molecular Probes P-3000) pH=7.4 and incubated at 37° C. After 60 minutes extracellular dye was removed and the cells were washed five times with FLIPR buffer containing HBSS (Gibco 14065-049) with 20 mM HEPES (Gibco, 15630-056), 2 mM Probenicid (Sigma P8761) pre-warmed at 37° C. using and Ebml cell washer leaving 100 μl of FLIPR buffer in each well. The cell plate and the diluted compounds (1% DMSO final concentration) are placed on the platform of the FLIPR and the door closed. A signal test to check background fluorescence and basal fluorescence signal is performed. Laser intensity is adjusted if necessary. Two minutes preincubation with the diluted test compounds is provide to determine any agonist activity on the M1 receptor by comparison to 30 nM Acetylcholine control. In order to determine any modulator activity the diluted compounds were added to cells and after two minutes preincubation, the EC20 of acetylcholine is added followed by another two minutes preincubation before the measurement of intracellular Ca^2+ with a FLIPR (Molecular Devices).

[1] abbreviates: human M1 in CHO cells, modulator activity with EC20 of acetylcholine, FLIPR Ca2+, read-out: EC50 h PAM.

Results on 23 compounds are retold here after patent US9932335B2 (priority 2013, dated 2018).

Structures are written as SMILES. Positions count from the first letter of the chain named. Where two headings read alike, the source gives them in different places.

As a reminder, the EC50 is the midpoint of the concentration-response curve.

Regarding `Cn1cc(-c2ccc(Cn3cc(C(=O)N[C@H]4CCOC[C@@H]4O)c4ncccc43)c(F)c2)cn1` (racemic) [Example 4, 1-(2-fluoro-4-(1-methyl-1H-pyrazol-4-yl)benzyl)-N-((3RS,4SR)-3-hydroxytetrahydro-2H-pyran-4-yl)-1H-pyrrolo[3,2-b]pyridine-3-carboxamide], the EC50 at M1 receptor was determined as 58.7 nM; at human M1, 28.6 nM.

For the compound `COCC(O)CNC(=O)c1cn(Cc2ccc(-c3cnn(C)c3)cc2F)c2cccnc12` (racemic) [Example 7, rac-1-[2-Fluoro-4-(1-methyl-1H-pyrazol-4-yl)-benzyl]-1H-pyrrolo[3,2-b]pyridine-3-carboxylic acid (2-hydroxy-3-methoxy-propyl)-amide], the EC50 at human M1 (setting [1]) stood at 232 nM.

As to `Cn1cc(-c2ccc(Cn3cc(C(=O)N[C@H]4CCCC[C@H]4O)c4ncccc43)c(F)c2)cn1` (racemic) [Example 37], the results for the EC50 at M1 receptor and at human M1 were 123 nM and 162 nM, respectively.

Turning to `Cn1cc(-c2ccc(Cn3cc(C(=O)N[C@H]4CCCC[C@]4(C)O)c4ncccc43)c(F)c2)cn1` (racemic) [Example 39, 1-(2-fluoro-4-(1-methyl-1H-pyrazol-4-yl)benzyl)-N-((1SR,2SR)-2-hydroxy-2-methylcyclohexyl)-1H-pyrrolo[3,2-b]pyridine-3-carboxamide], the EC50 at M1 receptor turned out to be 264 nM; on human M1 it was 177 nM.

In the case of `Cn1cc(-c2ccc(Cn3cc(C(=O)N[C@H]4CCCC[C@@]4(C)O)c4ncccc43)c(F)c2)cn1` (racemic) [Example 40, 1-(2-fluoro-4-(1-methyl-1H-pyrazol-4-yl)benzyl)-N-((1SR,2RS)-2-hydroxy-2-methylcyclohexyl)-1H-pyrrolo[3,2-b]pyridine-3-carboxamide], the EC50 was 63.2 nM on M1 receptor and 47.9 nM at human M1.

With `Cn1cc(-c2ccc(Cn3cc(C(=O)N[C@H]4CCOC[C@@H]4O)c4ncccc43)cn2)cn1` (racemic) [Example 57, N-((3RS,4SR)-3-hydroxytetrahydro-2H-pyran-4-yl)-1-((6-(1-methyl-1H-pyrazol-4-yl)pyridin-3-yl)methyl)-1H-pyrrolo[3,2-b]pyridine-3-carboxamide], the values for the EC50 at M1 receptor and on human M1 were 133 nM and 143 nM, respectively.

On to `C[C@@H](O)CNC(=O)c1cn(Cc2ccc(-c3cnn(C)c3)cc2F)c2cccnc12` [Example 9], for which the EC50 at human M1 (setting [1]) came out at 459 nM.

Regarding `C[C@H](O)CNC(=O)c1cn(Cc2ccc(-c3cnn(C)c3)cc2F)c2cccnc12` [Example 10], the concentration for a half-maximal effect (EC50) on human M1 (setting [1]) amounted to 477 nM.

As to `Cn1cc(-c2ccc(Cn3cc(C(=O)NC[C@@H](O)CO)c4ncccc43)c(F)c2)cn1` [Example 15, 1-[2-Fluoro-4-(1-methyl-1H-pyrazol-4-yl)-benzyl]-1H-pyrrolo[3,2-b]pyridine-3-carboxylic acid ((R)-2,3-dihydroxy-propyl)-amide], the 50% effective concentration (EC50) on human M1 (setting [1]) worked out at 333 nM.

With `Cn1cc(-c2ccc(Cn3cc(C(=O)N[C@@H]4CCC[C@H]4O)c4ncccc43)c(F)c2)cn1` [Example 16, 1-[2-Fluoro-4-(1-methyl-1H-pyrazol-4-yl)-benzyl]-1H-pyrrolo[3,2-b]pyridine-3-carboxylic acid ((1R,2R)-2-hydroxy-cyclopentyl)-amide], the EC50 at human M1 is 397 nM.

As to `CC(C)[C@H](CO)NC(=O)c1cn(Cc2ccc(-c3cnn(C)c3)cc2F)c2cccnc12` [Example 21, 1-[2-Fluoro-4-(1-methyl-1H-pyrazol-4-yl)-benzyl]-1H-pyrrolo[3,2-b]pyridine-3-carboxylic acid ((R)-1-hydroxymethyl-2-methyl-propyl)-amide], on human M1, the EC50 stood at 201 nM.

Turning to `CCC[C@@H](CO)NC(=O)c1cn(Cc2ccc(-c3cnn(C)c3)cc2F)c2cccnc12` [Example 23, 1-[2-Fluoro-4-(1-methyl-1H-pyrazol-4-yl)-benzyl]-1H-pyrrolo[3,2-b]pyridine-3-carboxylic acid ((S)-1-hydroxymethyl-butyl)-amide], the EC50 at human M1 worked out at 205 nM.

For the compound `CC(C)C[C@@H](CO)NC(=O)c1cn(Cc2ccc(-c3cnn(C)c3)cc2F)c2cccnc12` [Example 25, 1-[2-Fluoro-4-(1-methyl-1H-pyrazol-4-yl)-benzyl]-1H-pyrrolo[3,2-b]pyridine-3-carboxylic acid ((S)-1-hydroxymethyl-3-methyl-butyl)-amide], the EC50 at human M1 (setting [1]) amounted to 233 nM.

Turning to `Cn1cc(-c2ccc(Cn3cc(C(=O)Nc4ccccc4CO)c4ncccc43)c(F)c2)cn1` [Example 29, 1-[2-Fluoro-4-(1-methyl-1H-pyrazol-4-yl)-benzyl]-1H-pyrrolo[3,2-b]pyridine-3-carboxylic acid (2-hydroxymethyl-phenyl)-amide], at human M1 (setting [1]), the EC50 is 298 nM.

As for `Cn1cc(-c2ccc(Cn3cc(C(=O)NCC(O)c4ccccc4)c4ncccc43)c(F)c2)cn1` (stereo not shown) [Example 31, 1-[2-Fluoro-4-(1-methyl-1H-pyrazol-4-yl)-benzyl]-1H-pyrrolo[3,2-b]pyridine-3-carboxylic acid (2-hydroxy-2-phenyl-ethyl)-amide], the EC50 on human M1 (setting [1]) stood at 429 nM.

On to `Cc1ccc(NC(=O)c2cn(Cc3ccc(-c4cnn(C)c4)cc3F)c3cccnc23)c(CO)c1` [Example 33, 1-[2-Fluoro-4-(1-methyl-1H-pyrazol-4-yl)-benzyl]-1H-pyrrolo[3,2-b]pyridine-3-carboxylic acid (2-hydroxymethyl-4-methyl-phenyl)-amide], for which, at human M1 (setting [1]), the EC50 came to 282 nM.

As for `Cc1cccnc1NC(=O)c1cn(Cc2ccc(-c3cnn(C)c3)cc2F)c2cccnc12` [Example 35, 1-[2-Fluoro-4-(1-methyl-1H-pyrazol-4-yl)-benzyl]-1H-pyrrolo[3,2-b]pyridine-3-carboxylic acid (3-methyl-pyridin-2-yl)-amide], the EC50 at human M1 (setting [1]) stood at 320 nM.

Consider `CO[C@H]1CCCC[C@@H]1NC(=O)c1cn(Cc2ccc(-c3cnn(C)c3)cc2F)c2cccnc12` [Example 38, 1-[2-Fluoro-4-(1-methyl-1H-pyrazol-4-yl)-benzyl]-1H-pyrrolo[3,2-b]pyridine-3-carboxylic acid ((1S,2S)-2-methoxy-cyclohexyl)-amide], for which the concentration for a half-maximal effect (EC50) at human M1 (setting [1]) was found to be 369 nM.

With `Cn1cc(-c2ccc(Cn3cc(C(=O)N[C@@H]4COCC[C@H]4O)c4ncccc43)c(F)c2)cn1` [Example 42, 1-(2-fluoro-4-(1-methyl-1H-pyrazol-4-yl)benzyl)-N-((3R,4R)-4-hydroxytetrahydro-2H-pyran-3-yl)-1H-pyrrolo[3,2-b]pyridine-3-carboxamide], the EC50 on human M1 is 487 nM.

Take `O=C(N[C@H]1CCCC[C@@H]1O)c1cn(Cc2ccc(Br)cc2)c2cccnc12` [Example 50, 1-(4-bromobenzyl)-N-((1S,2S)-2-hydroxycyclohexyl)-1H-pyrrolo[3,2-b]pyridine-3-carboxamide]: the EC50 on human M1 (setting [1]) was determined as 319 nM.

As to `Cn1cc(-c2cccc(Cn3cc(C(=O)N[C@H]4CCCC[C@@H]4O)c4ncccc43)c2)cn1` [Example 51, N-((1S,2S)-2-hydroxycyclohexyl)-1-(3-(1-methyl-1H-pyrazol-4-yl)benzyl)-1H-pyrrolo[3,2-b]pyridine-3-carboxamide], the EC50 on human M1 was 443 nM.

`N#Cc1ccc(Cn2cc(C(=O)N[C@H]3CCCC[C@@H]3O)c3ncccc32)c(F)c1` [Example 53, 1-(4-cyano-2-fluorobenzyl)-N-((1S,2S)-2-hydroxycyclohexyl)-1H-pyrrolo[3,2-b]pyridine-3-carboxamide]: the EC50 at human M1 was 321 nM.

For `O=C(N[C@H]1CCCC[C@@H]1O)c1cn(Cc2ccc(Cl)cc2)c2cccnc12` [Example 54, 1-(4-chlorobenzyl)-N-((1S,2S)-2-hydroxycyclohexyl)-1H-pyrrolo[3,2-b]pyridine-3-carboxamide], on human M1, the EC50 is 264 nM.
